Experimental data as given in ChEMBL document CHEMBL1275518, “Low penetration of oseltamivir and its carboxylate into cerebrospinal fluid in healthy Japanese and Caucasian volunteers” (Antimicrob Agents Chemother, 2008).

Columns and labels:
[1] = Clast in healthy adult plasma assessed as oseltamivir carboxylate at 150 mg, po administered as single dose by LC/MS analysis; type: ADME, organism-based; conditions: human, in vivo
[2] = AUC (0 to last) in healthy adult plasma at 150 mg, po administered as single dose by LC/MS analysis; type: ADME, organism-based; parameters: dose 150 mg, time 0 - last, route oral; conditions: human
[3] = Cmax in healthy adult CSF at 150 mg, po administered as single dose by LC/MS analysis; type: ADME, organism-based, Cerebrospinal fluid; parameters: dose 150 mg, route oral; conditions: human
[4] = Ratio of AUC (0 to last) in healthy adult CSF to AUC (0 to last) in healthy adult plasma at 150 mg, po administered as single dose; type: ADME, organism-based; conditions: human
[5] = Tlast in healthy adult CSF assessed as oseltamivir carboxylate at 150 mg, po administered as single dose by LC/MS analysis; type: ADME, organism-based, Cerebrospinal fluid; conditions: human, in vivo
[6] = Half life in healthy adult plasma assessed as oseltamivir carboxylate at 150 mg, po administered as single dose by LC/MS analysis; type: ADME, organism-based; conditions: human, in vivo
[7] = Tlast in healthy adult CSF at 150 mg, po administered as single dose by LC/MS analysis; type: ADME, organism-based, Cerebrospinal fluid; conditions: human, in vivo
[8] = Ratio of Cmax in healthy adult CSF to Cmax in healthy adult plasma assessed as oseltamivir carboxylate at 150 mg, po administered as single dose; type: ADME, organism-based; conditions: human
[9] = Tmax in healthy adult plasma assessed as oseltamivir carboxylate at 150 mg, po administered as single dose by LC/MS analysis; type: ADME, organism-based; conditions: human, in vivo
[10] = Cmax in healthy adult plasma at 150 mg, po administered as single dose by LC/MS analysis; type: ADME, organism-based; parameters: dose 150 mg, route oral; conditions: human
[11] = Tmax in healthy adult CSF assessed as oseltamivir carboxylate at 150 mg, po administered as single dose by LC/MS analysis; type: ADME, organism-based, Cerebrospinal fluid; conditions: human, in vivo
[12] = Tlast in healthy adult plasma at 150 mg, po administered as single dose by LC/MS analysis; type: ADME, organism-based; conditions: human, in vivo
[13] = Clast in healthy adult CSF assessed as oseltamivir carboxylate at 150 mg, po administered as single dose by LC/MS analysis; type: ADME, organism-based, Cerebrospinal fluid; conditions: human, in vivo
[14] = Ratio of Cmax in healthy adult CSF to Cmax in healthy adult plasma at 150 mg, po administered as single dose; type: ADME, organism-based; conditions: human
[15] = AUC (0 to last) in healthy adult plasma assessed as oseltamivir carboxylate at 150 mg, po administered as single dose by LC/MS analysis; type: ADME, organism-based; parameters: dose 150 mg, time 0 - last, route oral; conditions: human, in vivo
[16] = AUC (0 to last) in healthy adult CSF assessed as oseltamivir carboxylate at 150 mg, po administered as single dose by LC/MS analysis; type: ADME, organism-based, Plasma; parameters: dose 150 mg, route oral, time 0 - last; conditions: human, in vivo
[17] = AUC (0 to infinity) in healthy adult plasma at 150 mg, po administered as single dose by LC/MS analysis; type: ADME, organism-based; parameters: dose 150 mg, time infinity, route oral; conditions: human
[18] = AUC (0 to infinity) in healthy adult plasma assessed as oseltamivir carboxylate at 150 mg, po administered as single dose by LC/MS analysis; type: ADME, organism-based; parameters: dose 150 mg, time infinity, route oral; conditions: human, in vivo
[19] = Half life in healthy adult plasma at 150 mg, po administered as single dose by LC/MS analysis; type: ADME, organism-based; conditions: human
[20] = Tmax in healthy adult CSF at 150 mg, po administered as single dose by LC/MS analysis; type: ADME, organism-based, Cerebrospinal fluid; conditions: human
[21] = Clast in healthy adult plasma at 150 mg, po administered as single dose by LC/MS analysis; type: ADME, organism-based; conditions: human, in vivo
[22] = AUC (0 to last) in healthy adult CSF at 150 mg, po administered as single dose by LC/MS analysis; type: ADME, organism-based; parameters: dose 150 mg, route oral, time 0 - last; conditions: human
[23] = Ratio of AUC (0 to last) in healthy adult CSF to AUC (0 to last) in healthy adult plasma assessed as oseltamivir carboxylate at 150 mg, po administered as single dose; type: ADME, organism-based; conditions: human
[24] = Cmax in healthy adult plasma assessed as oseltamivir carboxylate at 150 mg, po administered as single dose by LC/MS analysis; type: ADME, organism-based; parameters: dose 150 mg, route oral; conditions: human, in vivo
[25] = Cmax in healthy adult CSF assessed as oseltamivir carboxylate at 150 mg, po administered as single dose by LC/MS analysis; type: ADME, organism-based, Cerebrospinal fluid; parameters: dose 150 mg, route oral; conditions: human, in vivo
[26] = Clast in healthy adult CSF at 150 mg, po administered as single dose by LC/MS analysis; type: ADME, organism-based, Cerebrospinal fluid; conditions: human, in vivo
[27] = Tlast in healthy adult plasma assessed as oseltamivir carboxylate at 150 mg, po administered as single dose by LC/MS analysis; type: ADME, organism-based; conditions: human, in vivo
[28] = Tmax in healthy adult plasma at 150 mg, po administered as single dose by LC/MS analysis; type: ADME, organism-based; conditions: human
[29] = Apparent oral clearance in healthy adult plasma at 150 mg, po administered as single dose by LC/MS analysis; type: ADME, organism-based; conditions: human

Clast [1]: 50.2 ng/mL
AUC(0-t) [2]: 308 ng·h/mL
Cmax [3]: 2.4 ng/mL
Kp [4]: 2.4%
Tlast [5]: 12 h
t1/2 [6]: 5.4 h
Tlast [7]: 5.5 h
Ratio [8]: 3.5%
Tmax [9]: 5 h
Cmax [10]: 115 ng/mL
Tmax [11]: 8 h
Tlast [12]: 10.5 h
Clast [13]: 14.5 ng/mL
Kp [14]: 2.1%
AUC [15]: 5540 ng·h/mL
AUC [16]: 157 ng·h/mL
AUC(0-inf) [17]: 313 ng·h/mL
AUC [18]: 5950 ng·h/mL
half-life [19]: 1.8 h
Tmax [20]: 3.5 h
Clast [21]: 2.1 ng/mL
AUC(0-t) [22]: 7.6 ng·h/mL
Ratio AUC [23]: 2.9%
Cmax [24]: 544 ng/mL
Cmax [25]: 19 ng/mL
Clast [26]: 1.4 ng/mL
Tlast [27]: 24 h
Tmax [28]: 1 h
CL/F [29]: 8370 mL/min
SMILES: CCOC(=O)C1=C[C@@H](OC(CC)CC)[C@H](NC(C)=O)[C@@H](N)C1.O=P(O)(O)O [OSELTAMIVIR PHOSPHATE]
